Reference: article PMC8624133, “10th Trends in Medical Mycology Held on 8 to 11 October 2021, Aberdeen, Scotland, Organized by the European Confederation of Medical Mycology (ECMM)” (Journal of Fungi, 2021)
Starred links: 1 amine or outer side, 2 acyl side, 3 side chain; linkers in the order of their positions; H or OH if unused. Positions of bridges follow the written chain, without caps; N, C: chain ends. Non-standard residues stand in square brackets, D forms with d. Residues, ends and D or L forms follow the SMILES beside them. *: point of attachment. Orn(4R-OH,5R-OCH2CH2NMe3+) = C[N+](C)(C)CCO[C@@H](N[*:3])[C@H](O)C[C@H](N[*:1])C(=O)[*:2]; pTerphenylCO(4''-OnC5H11) = CCCCCOc1ccc(-c2ccc(-c3ccc(C(=O)*)cc3)cc2)cc1; hTyr(3S-OH,4S-OH) = N[C@H](C(=O)O)[C@H](O)[C@@H](O)c1ccc(O)cc1; Pro(3S-OH,4S-Me) = C[C@H]1CN[C@H](C(=O)O)[C@H]1O; Hyp = O=C(O)[C@@H]1C[C@@H](O)CN1

B1: G-CSF (protein, UniProt P09919 31-207, looked up)
Granulocyte …: TPLGPASSLPQSFLLKCLEQVRKIQGDGAALQEKLVSECATYKLCHPEELVLLGHSLGIPWAPLSSCPSQALQLAGCLSQLHSGLFLYQGLLQALEGISPELGPTLDTLQLDVADFATTIWQQMEELGMAPALQPTQGAMPAFASAFQRRAGGVLVASHLQSFLEVSYRVLRHLAQP

Assays:
Candida albicans (CA) = test: Post-antifungal effect (PAFE); assay type: cell-based; settings: CA clinical isolate; all concentrations (1×, 4×, 16× bMIC), 1 h exposure
Method: (§1) Materials &Methods: Six Candida spp. […] For PAFE determinations, antifungal concentrations of 1×, 4×, and 16× bMiC were used. A starting inoculum of 1–[…] CFU/mLwas added to RPMl with the antifungal agent. Post 1 h exposure, cells were washed 3 times and resuspended in 10 mL of pre-warmed RPMl. Colony counts were performed at to, 1 h before and after final washt t2, t4, t8, t12, t24 and t48 h. PAFE was calculated as the difference in time required for isolates to rrow1-logio following the final cell wash compared to the growth control.

C. parapsilosis (CPRP) = test: Post-antifungal effect (PAFE); assay type: cell-based, Candida parapsilosis; settings: CPRP ATCC 22019, all concentrations
Method: as §1

C. glabrata (CGLA) = test: Post-antifungal effect (PAFE); assay type: cell-based, Candida glabrata
Method: as §1

[1] = Open-label single-dose study in hepatic impairment; assay type: in vivo, human
Method: Materials &Methods: The safety, tolerability, and PK of rezafungin in subjects with moderate (Group 1a) and severe (Group 2a) HI (Child-Pugh class Band C) and healthysubjects (HS, Groups 1b and 2b) was investigated in this open-label, single-dose study. Each Hl group enrolled was matched to a separate HS group (n = 8 each 32 total) by age, sex and body mass index (BMI) and received a single 400-mg intravenous 1 h infusion of RZF.Plasma PK sampling was performed at various time points through 336 h post- dose. Rezafungin PKparameters were derived using non-compartmental analysis. Safety and tolerability were assessed throughout the study.

C. albicans = test: Neutrophil control of hyphal growth (swarming); assay type: cell-based, Candida albicans; settings: neutrophils of SOT and SCT recipients, ex vivo
Method: Methods and Materials: Twenty-one SOT, 19 SCT and 23 healthy control patients (HC) were identified and consented at primary care/outpatient transplant clinics. Transplant recipients were enrolled at a time period two to four months post-transplant. Following consent and peripheral blood collection, neutrophils were freshly isolated and co-incubated with C. albicans and the percent remaining live yeast was measured using a viability dye compared to a standard control to determine fungal elimination by neutrophils. Growth inhibition of C. albicans was also quantified by neutrophil swarming to yeast spotted onto glass slides, assessed by live cell imaging with or without G-CSF. Effect of soluble factors on neutrophils function was determined by incubation of healthy neutrophils with SOT and SCT serum and measuring ability to control C. albicans.

Molecule | PAFE (Candida albicans (CA)) | PAFE (C. parapsilosis (CPRP)) | PAFE (C. glabrata (CGLA); CGLA #3 isolate, 1× bMIC) | PAFE (C. glabrata (CGLA); both CGLA strains, all concentrations) | AEs, moderate hepatic impairment group ([1]; all mild severity) | AEs, severe hepatic impairment group ([1]; all moderate severity, unrelated) | AEs, all groups ([1]; in 7 of 32 subjects) | mean exposure lower than in healthy subjects ([1]; moderate or severe HI, single 400-mg intravenous 1 h infusion, AUC, Cmax) | mean half-life ([1]; range across groups, non-compartmental analysis) | neutrophil ability to control hyphal growth (C. albicans)
CCCCCOc1ccc(-c2ccc(-c3ccc(C(=O)N[C@H]4C[C@@H](O)[C@@H](OCC[N+](C)(C)C)NC(=O)[C@@H]5[C@@H](O)[C@@H](C)CN5C(=O)[C@H]([C@@H](C)O)NC(=O)[C@H]([C@H](O)[C@@H](O)c5ccc(O)cc5)NC(=O)[C@@H]5C[C@@H](O)CN5C(=O)[C@H]([C@@H](C)O)NC4=O)cc3)cc2)cc1 [rezafungin, Rezafungin] ({pTerphenylCO(4''-OnC5H11)}-[Orn(4R-OH,5R-OCH2CH2NMe3+)]T[Hyp][hTyr(3S-OH,4S-OH)]T[Pro(3S-OH,4S-Me)]; lactam 1-C) | > 14.9 h | > 40 h | > 46.7 h | > 40 h | 5 | 3 | 9 | ~ 30% | 110 to 124 h | –
B1 | – | – | – | – | – | – | – | – | – | partially restored
